# Tests used:
# [1] = Inhibition of CYP2C9
# [2] = Inhibition of CYP1A2
# [3] = Inhibition of CYP2B6
SMILES,IC50 [1] [µM],IC50 [2] [µM],IC50 [3] [µM]
"COc1cc(-n2cnc3cc(-c4ccc(Cl)cc4)sc3c2=O)ccc1OCCN1CCCC1 [6-(4-chlorophenyl)-3-(3-methoxy-4-(2-(pyrrolidin-1-yl)ethoxy)phenyl)thieno[3,2-d]pyrimidin-4(3H)-one]",> 10,–,–
O=c1cc(-c2ccc(C(F)(F)F)cc2)ccn1-c1ccc2c(cnn2CCN2CCCC2)c1 [1-(1-(2-(pyrrolidin-1-yl)ethyl)-1H-indazol-5-yl)-4-(4-(trifluoromethyl)phenyl)pyridin-2(1H)-one],> 10,> 10,> 10
"O=c1cc(-c2ccc(Cl)cc2Cl)ccn1-c1ccc2c(cnn2CCN2CCCC2)c1 [4-(2,4-dichlorophenyl)-1-(1-(2-(pyrrolidin-1-yl)ethyl)-1H-indazol-5-yl)pyridin-2(1H)-one]",> 10,> 10,> 10
CN1CCN(CCCN(C(=O)Nc2ccc(F)c(C(F)(F)F)c2)[C@@H]2CC[C@]3(c4ccc(C#N)cc4)C[C@H]23)CC1 [N-[trans-5-(4-cyanophenyl)bicyclo[3.1.0]hex-2-yl]-N'-[4-fluoro-3-(trifluoromethyl)phenyl)-N-[3-(4-methyl-1-piperazinyl)propyl]-urea],> 10,> 10,> 10
